According to US10428051B2 (priority 2015, dated 2019):

Biological target: human σ1 receptor (Homo sapiens, UniProt Q99720)
Assay: biochemical
Type: binding
Set-up: μ and σ1 dual (binding to the σ1 receptor and the μ-opioid receptor expressed as Ki): key to the marks not given beside the values

human σ1 receptor, sequence (Q99720 whole entry): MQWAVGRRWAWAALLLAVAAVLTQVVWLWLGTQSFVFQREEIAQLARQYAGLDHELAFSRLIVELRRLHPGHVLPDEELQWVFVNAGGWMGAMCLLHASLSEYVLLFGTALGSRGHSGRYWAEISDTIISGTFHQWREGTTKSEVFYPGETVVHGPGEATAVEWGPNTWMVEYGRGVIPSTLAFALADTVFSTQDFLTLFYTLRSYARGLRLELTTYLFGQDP

SMILES: CCC(=O)N(CC1(N2CCN(CC(C)C)CC2)CCOC2(CCCC2)C1)c1cccc(C(F)(F)F)n1 (stereo not shown) [Example 175, N-((9-(4-isobutylpiperazin-1-yl)-6-oxaspiro[4.5]decan-9-yl)methyl)-N-(6-(trifluoromethyl)pyridin-2-yl)propionamide]
- Ki: < 500 nM

SMILES: CCC(=O)N(CC1(N2CCN(CCc3ccncc3)CC2)CCOCC1)c1cccc(C(F)(F)F)n1 [Example 206, N-((4-(4-(2-(pyridin-4-yl)ethyl)piperazin-1-yl)tetrahydro-2H-pyran-4-yl)methyl)-N-(6-(trifluoromethyl)pyridin-2-yl)propionamide]
- Ki: < 500 nM

SMILES: CCNC(=O)N(CC1(N2CCN(Cc3ccccc3)CC2)CC1)c1ccccc1 [Example 52, 1-((1-(4-benzylpiperazin-1-yl)cyclopropyl)methyl)-3-ethyl-1-phenylurea]
- Ki: < 500 nM

SMILES: CCC(=O)N(CC1(N2CCN(Cc3ccccc3)CC2)CCOCC1)c1ccc(C(F)(F)F)nc1 [Example 11, N-((4-(4-benzylpiperazin-1-yl)tetrahydro-2H-pyran-4-yl)methyl)-N-(6-(trifluoromethyl)pyridin-3-yl)propionamide]
- μ and σ1 dual (binding to the σ1 receptor and the μ-opioid receptor expressed as Ki): ++

SMILES: CCC(=O)N(CC1(N2CCN(Cc3ccc(C(F)(F)F)nc3)CC2)CCOCC1)c1ccccc1 [Example 103, N-phenyl-N-((4-(4-((6-(trifluoromethyl)pyridin-3-yl)methyl)piperazin-1-yl)tetrahydro-2H-pyran-4-yl)methyl)propionamide]
- Ki: > 500 nM

SMILES: CCC(=O)N(CC1(N2CCN(Cc3ccc(C(=O)NC)cc3)CC2)CCOCC1)c1ccccc1 [Example 125, N-methyl-4-((4-(4-((N-phenylpropionamido)methyl)tetrahydro-2H-pyran-4-yl)piperazin-1-yl)methyl)benzamide]
- μ and σ1 dual (binding to the σ1 receptor and the μ-opioid receptor expressed as Ki): ++

SMILES: CCC(=O)N(CC1(N2CCN(Cc3ccccc3)CC2)CCOC(C)(C)C1)c1ncccc1C#N (stereo not shown) [Example 68, N-((4-(4-benzylpiperazin-1-yl)-2,2-dimethyltetrahydro-2H-pyran-4-yl)methyl)-N-(3-cyanopyridin-2-yl)propionamide]
- μ and σ1 dual (binding to the σ1 receptor and the μ-opioid receptor expressed as Ki): ++

SMILES: CCC(=O)N(CC1(N2CCN(Cc3ccccc3)CC2)CCOC(C)(C)C1)c1ncccc1F (stereo not shown) [Example 64, N-((4-(4-benzylpiperazin-1-yl)-2,2-dimethyltetrahydro-2H-pyran-4-yl)methyl)-N-(3-fluoropyridin-2-yl)propionamide]
- Ki: < 500 nM

SMILES: O=C(c1cccs1)N(CC1(N2CCN(Cc3ccccc3)CC2)CCOCC1)c1ccccn1 [Example 38, N-((4-(4-benzylpiperazin-1-yl)tetrahydro-2H-pyran-4-yl)methyl)-N-(pyridin-2-yl)thiophene-2-carboxamide]
- μ and σ1 dual (binding to the σ1 receptor and the μ-opioid receptor expressed as Ki): ++

SMILES: CCC(=O)N(CC1(N2CCN(Cc3ccc(NC(C)=O)cc3)CC2)CC1)c1ccccc1 [Example 115, N-((1-(4-(4-acetamidobenzyl)piperazin-1-yl)cyclopropyl)methyl)-N-phenylpropionamide]
- μ and σ1 dual (binding to the σ1 receptor and the μ-opioid receptor expressed as Ki): ++

SMILES: O=C(c1cccs1)N(CC1(N2CCN(Cc3ccccc3)CC2)CC1)c1ccccn1 [Example 47, N-((1-(4-benzylpiperazin-1-yl)cyclopropyl)methyl)-N-(pyridin-2-yl)thiophene-2-carboxamide]
- μ and σ1 dual (binding to the σ1 receptor and the μ-opioid receptor expressed as Ki): ++

SMILES: CCC(=O)N(CC1(N2CCN(Cc3ccccc3)CC2)CCOCC1)c1cncc(C(F)(F)F)c1 [Example 9, N-((4-(4-benzylpiperazin-1-yl)tetrahydro-2H-pyran-4-yl)methyl)-N-(5-(trifluoromethyl)pyridin-3-yl)propionamide]
- μ and σ1 dual (binding to the σ1 receptor and the μ-opioid receptor expressed as Ki): ++

SMILES: CCC(=O)N(CC1(N2CCN(Cc3ccc(F)cc3)CC2)CCOCC1)c1ccccn1 [Example 111, N-((4-(4-(4-fluorobenzyl)piperazin-1-yl)tetrahydro-2H-pyran-4-yl)methyl)-N-(pyridin-2-yl)propionamide]
- Ki: < 500 nM

SMILES: CCOCCCN1CCN(C2(CN(C(=O)CC)c3cccc(C(F)(F)F)n3)CCOCC2)CC1 [Example 150, N-((4-(4-(3-ethoxypropyl)piperazin-1-yl)tetrahydro-2H-pyran-4-yl)methyl)-N-(6-(trifluoromethyl)pyridin-2-yl)propionamide]
- Ki: < 500 nM

SMILES: CCC(=O)N(CC(C)(C)N1CCN(CCc2ccccc2F)CC1)c1ncccc1F [Example 69, N-(2-(4-(2-fluorophenethyl)piperazin-1-yl)-2-methylpropyl)-N-(3-fluoropyridin-2-yl)propionamide]
- μ and σ1 dual (binding to the σ1 receptor and the μ-opioid receptor expressed as Ki): ++

SMILES: CCC(=O)N(CC1(N2CCN(Cc3ccccc3)CC2)CC1)c1ncccc1C#N [Example 80, N-((1-(4-benzylpiperazin-1-yl)cyclopropyl)methyl)-N-(3-cyanopyridin-2-yl)propionamide]
- Ki: < 500 nM

SMILES: CCC(=O)N(CC(C)(C)N1CCN(CCOC(C)C)CC1)c1ncccc1F [Example 73, N-(3-fluoropyridin-2-yl)-N-(2-(4-(2-isopropoxyethyl)piperazin-1-yl)-2-methylpropyl)propionamide]
- μ and σ1 dual (binding to the σ1 receptor and the μ-opioid receptor expressed as Ki): ++

SMILES: CCC(=O)N(CC1(N2CCN(C(C)c3ccc(F)cc3)CC2)CCOCC1)c1cccc(C(F)(F)F)n1 (stereo not shown) [Example 182, N-((4-(4-(1-(4-fluorophenyl)ethyl)piperazin-1-yl)tetrahydro-2H-pyran-4-yl)methyl)-N-(6-(trifluoromethyl)pyridin-2-yl)propionamide]
- Ki: < 500 nM

SMILES: CCC(=O)N(CC1(N2CCN(CCc3cccnc3)CC2)CCOCC1)c1cccc(C(F)(F)F)n1 [Example 201, N-((4-(4-(2-(pyridin-3-yl)ethyl)piperazin-1-yl)tetrahydro-2H-pyran-4-yl)methyl)-N-(6-(trifluoromethyl)pyridin-2-yl)propionamide]
- μ and σ1 dual (binding to the σ1 receptor and the μ-opioid receptor expressed as Ki): ++

SMILES: CCNC(=O)N(CC1(N2CCN(CCc3ccccc3)CC2)CCCCC1)c1ccccc1 [Example 50, 3-ethyl-1-((1-(4-phenethylpiperazin-1-yl)cyclohexyl)methyl)-1-phenylurea]
- Ki: < 500 nM

SMILES: CCC(=O)N(CC1(N2CCN(Cc3cncc(F)c3)CC2)CC1)c1ccccc1 [Example 122, N-((1-(4-((5-fluoropyridin-3-yl)methyl)piperazin-1-yl)cyclopropyl)methyl)-N-phenylpropionamide]
- Ki: < 500 nM

SMILES: CCC(=O)N(CC1(N2CCN(Cc3ccccc3)CC2)CC1)c1cccnc1C(F)(F)F [Example 76, N-((1-(4-benzylpiperazin-1-yl)cyclopropyl)methyl)-N-(2-(trifluoromethyl)pyridin-3-yl)propionamide]
- Ki: < 500 nM

SMILES: CCC(=O)N(CC1(N2CCN(Cc3ccccc3)CC2)CCOCC1)c1cc(C(F)(F)F)ccn1 [Example 8, N-((4-(4-benzylpiperazin-1-yl)tetrahydro-2H-pyran-4-yl)methyl)-N-(4-(trifluoromethyl)pyridin-2-yl)propionamide]
- Ki: < 500 nM

SMILES: CCC(=O)N(CC1(N2CCN(Cc3ccccc3)CC2)CCOCC1)c1ncccc1F [Example 82, N-((4-(4-benzylpiperazin-1-yl)tetrahydro-2H-pyran-4-yl)methyl)-N-(3-fluoropyridin-2-yl)propionamide]
- Ki: < 100 nM

SMILES: CCC(=O)N(CC1(N2CCN(Cc3ccc(C(=O)NC)cc3)CC2)CC1)c1ccccc1 [Example 131, N-methyl-4-((4-(1-((N-phenylpropionamido)methyl)cyclopropyl)piperazin-1-yl)methyl)benzamide]
- μ and σ1 dual (binding to the σ1 receptor and the μ-opioid receptor expressed as Ki): ++

SMILES: CCC(=O)N(CC1(N2CCN(CCOC(C)C)CC2)CC1)c1cccc(C(F)(F)F)n1 [Example 179, N-((1-(4-(2-isopropoxyethyl)piperazin-1-yl)cyclopropyl)methyl)-N-(6-(trifluoromethyl)pyridin-2-yl)propionamide]
- Ki: < 500 nM

SMILES: CCC(=O)N(CC1(N2CCN(CC(=O)N3CCCCC3)CC2)CCOCC1)c1ccccc1 [Example 127, N-((4-(4-(2-oxo-2-(piperidin-1-yl)ethyl)piperazin-1-yl)tetrahydro-2H-pyran-4-yl)methyl)-N-phenylpropionamide]
- Ki: > 500 nM

SMILES: CCC(=O)N(CC1(N2CCN(CC(=O)N3CCCCC3)CC2)CC1)c1ccccc1 [Example 132, N-((1-(4-(2-oxo-2-(piperidin-1-yl)ethyl)piperazin-1-yl)cyclopropyl)methyl)-N-phenylpropionamide]
- μ and σ1 dual (binding to the σ1 receptor and the μ-opioid receptor expressed as Ki): ++

SMILES: CCC(=O)N(CC1(N2CCN(CCOC(C)C)CC2)CCOC(C)(C)C1)c1cccc(C#N)n1 (stereo not shown) [Example 172, N-(6-cyanopyridin-2-yl)-N-((4-(4-(2-isopropoxyethyl)piperazin-1-yl)-2,2-dimethyltetrahydro-2H-pyran-4-yl)methyl)propionamide]
- Ki: > 500 nM

SMILES: CCC(=O)N(CC1(N2CCN(CCOCC(C)(C)O)CC2)CCOCC1)c1cccc(C(F)(F)F)n1 [Example 186, N-((4-(4-(2-(2-hydroxy-2-methylpropoxy)ethyl)piperazin-1-yl)tetrahydro-2H-pyran-4-yl)methyl)-N-(6-(trifluoromethyl)pyridin-2-yl)propionamide]
- μ and σ1 dual (binding to the σ1 receptor and the μ-opioid receptor expressed as Ki): ++

SMILES: CCC(=O)N(CC1(N2CCN(Cc3ccccn3)CC2)CCOCC1)c1ccccc1 [Example 102, N-phenyl-N-((4-(4-(pyridin-2-ylmethyl)piperazin-1-yl)tetrahydro-2H-pyran-4-yl)methyl)propionamide]
- Ki: > 500 nM

SMILES: CCC(=O)N(CC1(N2CCN(Cc3ccccc3)CC2)CCOCC1)c1cccc(C#N)c1 [Example 57, N-((4-(4-benzylpiperazin-1-yl)tetrahydro-2H-pyran-4-yl)methyl)-N-(3-cyanophenyl)propionamide]
- μ and σ1 dual (binding to the σ1 receptor and the μ-opioid receptor expressed as Ki): ++

SMILES: CCC(=O)N(CC1(N2CCN(Cc3ccccc3)CC2)CCOCC1)c1ccccc1Cl [Example 2, N-((4-(4-benzylpiperazin-1-yl)tetrahydro-2H-pyran-4-yl)methyl)-N-(2-chlorophenyl)propionamide]
- Ki: < 100 nM

SMILES: CCC(=O)N(CC1(N2CCN(CC(C)C)CC2)CCSCC1)c1cccc(C(F)(F)F)n1 [Example 204, N-((4-(4-isobutylpiperazin-1-yl)tetrahydro-2H-thiopyran-4-yl)methyl)-N-(6-(trifluoromethyl)pyridin-2-yl)propionamide]
- Ki: < 500 nM
